Residue numbers refer to the chain shown, from its start.
How the values were obtained:
[1] = molecular target: T1, ZmHK1 (tobacco membrane; fused to GFP) (Zea mays, UniProt Q9FRY7); assay: cytokinin binding assay, tobacco microsomal membranes
T1 sequence (Q9FRY7 1-974): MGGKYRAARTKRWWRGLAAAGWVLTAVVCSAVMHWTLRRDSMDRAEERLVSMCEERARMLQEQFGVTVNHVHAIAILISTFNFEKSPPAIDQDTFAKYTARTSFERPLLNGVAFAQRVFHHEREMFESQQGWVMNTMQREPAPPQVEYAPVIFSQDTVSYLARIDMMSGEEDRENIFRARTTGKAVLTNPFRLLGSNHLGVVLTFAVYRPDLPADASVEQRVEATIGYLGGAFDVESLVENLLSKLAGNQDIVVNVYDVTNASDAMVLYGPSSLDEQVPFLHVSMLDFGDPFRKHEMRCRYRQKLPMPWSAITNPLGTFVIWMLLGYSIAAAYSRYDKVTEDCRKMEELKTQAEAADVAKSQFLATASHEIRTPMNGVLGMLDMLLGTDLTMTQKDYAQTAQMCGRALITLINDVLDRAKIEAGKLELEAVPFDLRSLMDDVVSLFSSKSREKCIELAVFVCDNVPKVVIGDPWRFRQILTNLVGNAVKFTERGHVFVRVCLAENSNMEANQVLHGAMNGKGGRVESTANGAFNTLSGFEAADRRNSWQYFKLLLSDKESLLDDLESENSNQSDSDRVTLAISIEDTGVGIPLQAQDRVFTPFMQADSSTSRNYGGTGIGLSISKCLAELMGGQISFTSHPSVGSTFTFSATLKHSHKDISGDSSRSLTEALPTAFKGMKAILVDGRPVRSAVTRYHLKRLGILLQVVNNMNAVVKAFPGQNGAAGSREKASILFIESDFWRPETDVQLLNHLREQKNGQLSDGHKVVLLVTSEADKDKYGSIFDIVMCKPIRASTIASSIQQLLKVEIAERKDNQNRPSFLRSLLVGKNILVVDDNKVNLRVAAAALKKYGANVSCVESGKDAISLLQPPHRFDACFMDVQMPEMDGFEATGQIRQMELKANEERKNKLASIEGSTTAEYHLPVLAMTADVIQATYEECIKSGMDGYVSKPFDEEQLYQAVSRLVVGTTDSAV

[2] = molecular target: T2, ZmHK1 (tobacco membrane; fused to GFP) (Zea mays, UniProt Q9FRY7, P190L); assay: as above
T2 sequence (Q9FRY7 1-974 P190L): T1 sequence (Q9FRY7 1-974) with P190L

| SMILES | Kd [1] [nM] | Kd [2] [nM] |
| --- | --- | --- |
| C[C@H](CO)CCNc1ncnc2nc[nH]c12 [DZ] | 114 |  |
| c1ccc(CNc2ncnc3nc[nH]c23)cc1 [BA] | 1.42 |  |
| CC(C)=CCNc1ncnc2nc[nH]c12 [iP] |  | 0.23 |
| O=C(Nc1ccccc1)Nc1cnns1 [TD] | 49.2 |  |
| Nc1ncnc2nc[nH]c12 [Ade] | > 10000 |  |
